These results are taken from article PMC6261661 (ACS chemical neuroscience, 2018).

Several values for one entry are separate records, joined by “and”; a condition that tells them apart may be missing. Identical values can stand only once. Like-named read-outs stand apart in the source and are kept apart here. Square brackets hold non-standard residues; d marks the D form. Peptide text beside a SMILES is read from it. dBip = N[C@H](Cc1ccc(-c2ccccc2)cc1)C(=O)O; dPhe(4-I) = N[C@H](Cc1ccc(I)cc1)C(=O)O; 2Nal = N[C@@H](Cc1ccc2ccccc2c1)C(=O)O; 3Pal = N[C@@H](Cc1cccnc1)C(=O)O; 4Pal = N[C@@H](Cc1ccncc1)C(=O)O

For assay [1], the target named is T1, mMC4R (Mus musculus, UniProt P56450). In words: CRE/β-galactosidase reporter gene bioassay, agonist activity at mMC4R. Format: cell-based. As to conditions: ligand at 100 μM, compared to maximal response generated by α-MSH. (In a reporter assay the amount or activity of a reporter protein is the signal.)
T1 sequence (P56450 whole entry): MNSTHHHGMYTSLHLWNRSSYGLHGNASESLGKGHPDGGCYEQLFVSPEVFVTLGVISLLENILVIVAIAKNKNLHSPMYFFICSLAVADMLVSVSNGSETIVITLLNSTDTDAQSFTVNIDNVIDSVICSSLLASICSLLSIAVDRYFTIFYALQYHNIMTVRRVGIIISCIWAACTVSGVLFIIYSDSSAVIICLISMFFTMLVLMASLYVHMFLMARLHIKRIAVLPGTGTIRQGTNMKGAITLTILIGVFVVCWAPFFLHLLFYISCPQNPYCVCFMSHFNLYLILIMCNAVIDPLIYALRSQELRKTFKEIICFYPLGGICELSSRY
The target in assay [2] is T2, mMC5R (Mus musculus, UniProt P41149). In words: CRE/β-galactosidase reporter gene bioassay, agonist activity at mMC5R. Format: cell-based.
T2 sequence (P41149 whole entry): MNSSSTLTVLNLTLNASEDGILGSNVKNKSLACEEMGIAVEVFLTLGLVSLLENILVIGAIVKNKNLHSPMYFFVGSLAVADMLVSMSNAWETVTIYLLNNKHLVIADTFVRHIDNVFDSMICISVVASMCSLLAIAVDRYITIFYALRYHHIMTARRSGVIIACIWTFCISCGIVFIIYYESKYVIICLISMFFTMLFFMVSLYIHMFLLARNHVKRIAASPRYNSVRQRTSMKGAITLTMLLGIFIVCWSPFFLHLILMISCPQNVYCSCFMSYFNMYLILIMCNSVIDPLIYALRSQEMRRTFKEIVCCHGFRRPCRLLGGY
The target of assay [3] is T3, mMC3R (Mus musculus, UniProt P33033). Put plainly: Antagonist Schild analysis against agonist MTII at mMC3R. The assay is classed as cell-based.
T3 sequence (P33033 whole entry): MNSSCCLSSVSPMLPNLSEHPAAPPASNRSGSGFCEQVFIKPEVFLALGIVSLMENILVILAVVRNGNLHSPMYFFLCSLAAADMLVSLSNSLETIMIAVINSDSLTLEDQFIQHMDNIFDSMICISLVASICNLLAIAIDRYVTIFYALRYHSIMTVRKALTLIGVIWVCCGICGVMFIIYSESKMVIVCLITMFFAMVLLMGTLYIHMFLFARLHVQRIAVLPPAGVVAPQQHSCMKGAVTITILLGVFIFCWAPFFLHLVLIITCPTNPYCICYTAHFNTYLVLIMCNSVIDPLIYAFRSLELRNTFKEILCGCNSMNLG
Assay [4] concerns the target T4, mMC1R (Mus musculus, UniProt Q01727). Put plainly: CRE/β-galactosidase reporter gene bioassay, agonist activity at mMC1R. Format: cell-based.
Assay [5] has as its target T1, mMC4R. Put plainly: Antagonist Schild analysis against agonist MTII at mMC4R. The assay is classed as cell-based.
Assay [6] relates to male and female mice. As to conditions: central administration, ref [37]; cited from earlier work.
Assay [7] concerns the target T3, mMC3R. Particulars: cited from earlier work; for EC50: read-out: mMC3R EC50, reference peptide from the literature.
In assay [8] the target is T2, mMC5R. Particulars: read-out: mMC5R EC50, reference peptide from the literature, cited from earlier work.
Assay [9] has as its target T1, mMC4R. As to conditions: read-out: mMC4R EC50, reference peptide from the literature, cited from earlier work.
Assay [10] concerns the target T4, mMC1R. As to conditions: read-out: mMC1R EC50, reference peptide from the literature, cited from earlier work.
Where [11] appears, read: fold difference in EC50 vs peptide 1, negative prefix = more potent than 1.
Setting [12] is: Ant = antagonist, SA = some stimulatory activity at 100 µM.

T4 sequence (Q01727 whole entry): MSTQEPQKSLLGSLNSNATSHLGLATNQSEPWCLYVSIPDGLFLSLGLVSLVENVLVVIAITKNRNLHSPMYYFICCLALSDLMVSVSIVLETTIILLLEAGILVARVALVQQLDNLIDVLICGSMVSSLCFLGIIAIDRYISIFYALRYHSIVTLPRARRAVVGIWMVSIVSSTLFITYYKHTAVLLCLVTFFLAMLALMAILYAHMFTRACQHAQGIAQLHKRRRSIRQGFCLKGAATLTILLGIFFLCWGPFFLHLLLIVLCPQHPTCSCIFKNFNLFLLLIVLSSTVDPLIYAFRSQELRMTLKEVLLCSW

On to `CC(=O)N[C@@H](Cc1c[nH]c2ccccc12)C(=O)N[C@H](Cc1ccc(I)cc1)C(=O)N[C@@H](CCCNC(=N)N)C(=O)N[C@@H](Cc1c[nH]c2ccccc12)C(N)=O` [Peptide 13, Ac-Trp-(pI)DPhe-Arg-Trp-NH2] (Ac-W[dPhe(4-I)]RW-NH2), for which the “mMC4R relative percentage of stimulation at 100 μM” value in [1] came out at 40%. For the same compound, the EC50 was 10000 ± 3000 nM in [2] and 4200 ± 1200 nM in assay [4] (mMC1R EC50, agonist, HEK-293 cells stably expressing receptor, ±SEM). The “mMC5R Fold Diff.” value in assay [2] (setting [11]) is on record as 1905. Besides, the “mMC5R fold less potent than peptide 1” value in [2] (less potent than 1) is given as 1900 fold. Besides, the Kb in assay [3] is 63.1 nM; in [5], 5.01 nM. Besides, in assay [3] (setting [12]), the “mMC3R pharmacology class printed in Fold Diff column (Ant, SA)” value is reported as “Ant”. For the same compound, the “mMC1R Fold Diff” value in [4] (setting [11]) is reported as 30. For the same compound, the “mMC4R pharmacology class printed in Fold Diff. column (Ant, SA)” value in assay [5] (setting [12]) is on record as “SA Ant”. For the same compound, the “effect on energy homeostasis in vivo” value in [6] was “different effects on energy homeostasis in male mice compared to female mice”.
Regarding `CC(=O)N[C@@H](Cc1c[nH]cn1)C(=O)N[C@H](Cc1ccccc1)C(=O)N[C@@H](CCCNC(=N)N)C(=O)N[C@@H](Cc1ccc2ccccc2c1)C(N)=O` [Peptide 39, Ac-His-DPhe-Arg-Nal(2’)-NH2] (Ac-H[dF]R[2Nal]-NH2), the EC50 in assay [7] (ref [31]) was 740 ± 160 nM; in assay [8] (ref [31]) it was 4.9 ± 1.5 nM; in [9] (ref [31]), 16 nM and 15.8 nM; in [10] (ref [31]), 17.9 ± 6 nM. Further, the “selectivity between the mMC1R and the mMC5R” value in assay [2] (monosubstituted reference peptides, from literature EC50 values of Table 3) is reported as at most 5 fold.
For the compound Ac-H[dF]R[dBip]-NH2 [Peptide 43], the EC50 in assay [7] (ref [31]) was 16000 ± 5000 nM; in [8] (ref [31]), 150 ± 10 nM; in assay [9] (ref [31]) it was 1500 ± 400 nM; in assay [10] (ref [31]), 310 ± 70 nM.
Ac-His-DBip-Arg-Trp-NH2 [Peptide 47]: the EC50 in assay [7] (ref [32]) is 2100 ± 700 nM; in [8] (ref [32]), 11.6 ± 3.9 nM; in assay [9] (ref [32]), 68 ± 16 nM; in assay [10] (ref [32]) it was 28 ± 11 nM.
For “Ac-His-DNal(1’)-Arg-Trp-NH2 [Peptide 46]”, the EC50 was 4100 ± 100 nM in assay [7] (ref [32]), 51 ± 4 nM in assay [8] (ref [32]), 300 ± 70 nM in [9] (ref [32]) and 360 ± 60 nM in [10] (ref [32]).
As for Ac-His-DPhe-Arg-3Bal-NH2 [Peptide 44], the EC50 in assay [7] (ref [31]) is 3700 ± 1400 nM; in assay [8] (ref [31]), 48 ± 4 nM; in assay [9] (ref [31]), 140 ± 20 nM; in [10] (ref [31]), 80 ± 9 nM.
In the case of “Ac-His-DPhe-Arg-Phe-NH2 (Ac-H[dF]RF-NH2; SMILES CC(=O)N[C@@H](Cc1c[nH]cn1)C(=O)N[C@H](Cc1ccccc1)C(=O)N[C@@H](CCCNC(=N)N)C(=O)N[C@@H](Cc1ccccc1)C(N)=O) [Peptide 37]”, the EC50 is 27000 ± 7000 nM in assay [7] (ref [31]), 890 ± 110 nM in assay [8] (ref [31]), 7800 ± 2500 nM in assay [9] (ref [31]) and 530 ± 240 nM in [10] (ref [31]).
For the compound “Ac-Phe-DPhe-Arg-Trp-NH2 (Ac-F[dF]RW-NH2; SMILES CC(=O)N[C@@H](Cc1ccccc1)C(=O)N[C@H](Cc1ccccc1)C(=O)N[C@@H](CCCNC(=N)N)C(=O)N[C@@H](Cc1c[nH]c2ccccc12)C(N)=O) [Peptide 48]”, the concentration for a half-maximal effect (EC50) was 12000 ± 2000 nM in [7] (ref [33]), 140 ± 5 nM in assay [8] (ref [33]), 71 ± 14 nM in assay [9] (ref [33]) and 500 ± 100 nM in assay [10] (ref [33]).
Take “Ac-Trp-DPhe-Arg-Trp-NH2 (Ac-W[dF]RW-NH2; SMILES CC(=O)N[C@@H](Cc1c[nH]c2ccccc12)C(=O)N[C@H](Cc1ccccc1)C(=O)N[C@@H](CCCNC(=N)N)C(=O)N[C@@H](Cc1c[nH]c2ccccc12)C(N)=O) [Peptide 49]”: the EC50 in assay [7] (ref [33]) was 10000 ± 2000 nM; in assay [8] (ref [33]), 510 ± 100 nM; in [9] (ref [33]), 530 ± 150 nM; in [10] (ref [33]) it was 5400 ± 1800 nM.
As for Ac-[3Pal][dF]RW-NH2 [Peptide 50], the “mMC3R pharmacology in words” value in [7] (ref [33]) is listed as “only slight agonist activity”. Besides, the results for the EC50 in assay [8] (ref [33]), in assay [9] (ref [33]) and in [10] (ref [33]) were 400 ± 100 nM, 890 ± 100 nM and 1200 ± 200 nM, respectively.
On to Ac-[4Pal][dF]RW-NH2 [Peptide 51], for which the EC50 in [7] (ref [33]) is 2300 ± 800 nM; in assay [8] (ref [33]) it was 93 ± 22 nM; in assay [9] (ref [33]), 130 ± 30 nM; in assay [10] (ref [33]) it was 180 ± 80 nM.

By EC50 is commonly meant the concentration that produces a half-maximal response. The term Kb denotes the affinity of an antagonist, worked out from how it opposes an agonist. Read a high Kb as lower antagonist affinity.
